Test systems include M14 melanoma; MCF7 breast; MDA-MB-231 breast; HCT-116 colon; CCRF-CEM leukemia; BT-549 breast; UACC-257 melanoma; SF-268 CNS; HCC-2998 colon; EKVX NSCLC.
Holding throughout (assay): NCI anticancer screen, dose series, 48 h

Structures are written as SMILES. “And” between values parts separate entries of the source, which are not always exact repeats. Equal values may be shown once.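 Cultured in 96-well plates, cells were exposed to test compound for 48 hours across five concentrations. At the GI50, growth is halved. TGI marks complete inhibition of growth.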

As to `O=C1c2cccnc2-c2nccc3c2c1nc1cc(Br)ccc13`, the TGI was found to be 0.163 µM in the experiment with M14 melanoma; 0.083 µM in the experiment with MCF7 breast; 0.876 µM with MDA-MB-231 breast; 0.0762 µM in the experiment on HCT-116 colon; 0.465 µM in the experiment with CCRF-CEM leukemia; 1.23 µM in the experiment with BT-549 breast. For the same compound, the TGI is 0.837 µM in the experiment with UACC-257 melanoma, 0.555 µM in the experiment with SF-268 CNS, 1.63 µM with HCC-2998 colon and 2.52 µM with EKVX NSCLC.

On to `C[N+]12CCCCC1C(CN1C(=O)Cc3c4ccccc4c(c4ccccc34)CC1=O)CCC2` (stereo unspecified), for which the TGI in the experiment on M14 melanoma, with MCF7 breast, in the experiment on MDA-MB-231 breast, in the experiment with HCT-116 colon, with CCRF-CEM leukemia and with BT-549 breast was > 100 µM each time. The TGI in the experiment with UACC-257 melanoma, in the experiment with SF-268 CNS, with HCC-2998 colon and in the experiment with EKVX NSCLC was > 100 µM in each case.

Turning to `CC(=O)[C@@]1(O)CC[C@H]2[C@@H]3C[C@H](C)C4=CC(=O)C=C[C@]4(C)[C@@]3(F)[C@@H](O)C[C@@]21C`, the TGI in the experiment with M14 melanoma, in the experiment on MCF7 breast, with MDA-MB-231 breast, with HCT-116 colon, in the experiment on CCRF-CEM leukemia and in the experiment with BT-549 breast was > 100 µM each time. For the same compound, the TGI in the experiment with UACC-257 melanoma, with SF-268 CNS, in the experiment on HCC-2998 colon and in the experiment with EKVX NSCLC was > 100 µM in each case.

As to `CN1COCc2c1ccc1cc3ccc4c(c3nc21)COCN4S(C)(=O)=O`, the TGI in the experiment with M14 melanoma, with MCF7 breast, in the experiment with MDA-MB-231 breast, with HCT-116 colon, in the experiment on CCRF-CEM leukemia and with BT-549 breast was > 100 µM throughout. The TGI in the experiment with UACC-257 melanoma, in the experiment on SF-268 CNS, in the experiment on HCC-2998 colon and in the experiment with EKVX NSCLC was > 100 µM throughout.

With `CC12CCC(O)CC1CCC1C2CCC2(C)C(C(=O)CC(O)C(F)(F)F)CCC12` (stereo unspecified), the TGI in the experiment on M14 melanoma was > 100 µM; with MCF7 breast it was > 100 µM; in the experiment on MDA-MB-231 breast, 98.2 µM; in the experiment on HCT-116 colon it was > 100 µM; in the experiment on CCRF-CEM leukemia, > 93.1 µM; in the experiment with BT-549 breast, > 100 µM. The TGI with UACC-257 melanoma is > 91.6 µM; in the experiment on SF-268 CNS, > 100 µM; in the experiment on HCC-2998 colon, 80 µM; in the experiment with EKVX NSCLC, 98.9 µM.

Regarding `CN(C)c1ccc(C2SCC(=O)N2c2ccc(Oc3ccc(Cl)cc3)c(Cl)c2)cc1` (stereo unspecified), the TGI in the experiment with M14 melanoma amounted to 69 µM; in the experiment with MCF7 breast, 89.3 µM; in the experiment with MDA-MB-231 breast, 43.3 µM; in the experiment with HCT-116 colon it was 32.7 µM; in the experiment with CCRF-CEM leukemia, 69.5 µM; in the experiment with BT-549 breast it was 48.2 µM. The TGI with UACC-257 melanoma is > 100 µM; with SF-268 CNS, 37.9 µM; in the experiment with HCC-2998 colon it was 52.4 µM; with EKVX NSCLC it was 60.5 µM.

With `On1c(-c2ccccc2)nc2ccccc2c1=S`, the TGI in the experiment on M14 melanoma, with MCF7 breast, in the experiment on MDA-MB-231 breast, in the experiment on HCT-116 colon, in the experiment on CCRF-CEM leukemia and in the experiment with BT-549 breast was > 100 µM each time. Also, the TGI in the experiment with UACC-257 melanoma, in the experiment on SF-268 CNS, in the experiment on HCC-2998 colon and in the experiment on EKVX NSCLC was > 100 µM in each case.

With `CN(C)CCOC1(Cc2ccc(F)cc2)CCC(C(C)(C)C)CC1` (stereo unspecified), the TGI in the experiment on M14 melanoma was 3.27 µM and 3.93 µM; in the experiment on MCF7 breast it was 14.3 µM and 18.3 µM; in the experiment with MDA-MB-231 breast, 23.8 µM and 22.9 µM; with HCT-116 colon, 15.6 µM and 15.9 µM; in the experiment with CCRF-CEM leukemia, 9.82 µM and 12.9 µM; with BT-549 breast it was 13.3 µM and 20.9 µM. The TGI is 13.4 µM and 12.1 µM in the experiment with UACC-257 melanoma; 27.2 µM and 28 µM in the experiment on SF-268 CNS; 12.3 µM and 12.7 µM with HCC-2998 colon; 27.4 µM and 32.5 µM in the experiment with EKVX NSCLC. In addition, the GI50 in the experiment on BT-549 breast is 3.29 µM and 8.02 µM.

With `COc1ccc2cc(C(C)C(=O)N3CCOC3=O)ccc2c1` (stereo unspecified), the TGI with M14 melanoma, in the experiment on MCF7 breast, in the experiment with MDA-MB-231 breast, in the experiment on HCT-116 colon, in the experiment with CCRF-CEM leukemia and in the experiment with BT-549 breast was > 100 µM throughout. For the same compound, the TGI in the experiment on UACC-257 melanoma, in the experiment on SF-268 CNS, with HCC-2998 colon and in the experiment on EKVX NSCLC was > 100 µM throughout.

Consider `Nc1ccc(S(=O)(=O)Nc2nccs2)cc1`, for which the TGI in the experiment on M14 melanoma, in the experiment on MCF7 breast, with MDA-MB-231 breast, in the experiment on HCT-116 colon, in the experiment on CCRF-CEM leukemia and with BT-549 breast was > 100 µM in each case. The TGI with UACC-257 melanoma, in the experiment with SF-268 CNS, in the experiment on HCC-2998 colon and with EKVX NSCLC was > 100 µM in each case.

`O=C(O)/C=c1/c2ccccc2n2nc3ccccc3c12`: the TGI in the experiment on M14 melanoma was > 100 µM; in the experiment on MCF7 breast, > 100 µM; in the experiment on MDA-MB-231 breast, > 100 µM; in the experiment on HCT-116 colon, 90.7 µM; in the experiment on CCRF-CEM leukemia, 99.6 µM; with BT-549 breast, > 100 µM. The TGI with UACC-257 melanoma is 70 µM; in the experiment on SF-268 CNS, > 100 µM; in the experiment with HCC-2998 colon, 84.9 µM; with EKVX NSCLC, > 100 µM.

These data come from PubChem BioAssay (NCI).
